Values quoted from earlier work as cited in patent publication US20210065841A1, “METHOD FOR DETERMINING ANDROGEN AND ANTI-ANDROGEN EFFECTS ON SUBSTANCES” (priority 2018, published 2021).

Molecular target: T1, androgen receptor (Homo sapiens, UniProt P10275)
T1 sequence (P10275 1-920): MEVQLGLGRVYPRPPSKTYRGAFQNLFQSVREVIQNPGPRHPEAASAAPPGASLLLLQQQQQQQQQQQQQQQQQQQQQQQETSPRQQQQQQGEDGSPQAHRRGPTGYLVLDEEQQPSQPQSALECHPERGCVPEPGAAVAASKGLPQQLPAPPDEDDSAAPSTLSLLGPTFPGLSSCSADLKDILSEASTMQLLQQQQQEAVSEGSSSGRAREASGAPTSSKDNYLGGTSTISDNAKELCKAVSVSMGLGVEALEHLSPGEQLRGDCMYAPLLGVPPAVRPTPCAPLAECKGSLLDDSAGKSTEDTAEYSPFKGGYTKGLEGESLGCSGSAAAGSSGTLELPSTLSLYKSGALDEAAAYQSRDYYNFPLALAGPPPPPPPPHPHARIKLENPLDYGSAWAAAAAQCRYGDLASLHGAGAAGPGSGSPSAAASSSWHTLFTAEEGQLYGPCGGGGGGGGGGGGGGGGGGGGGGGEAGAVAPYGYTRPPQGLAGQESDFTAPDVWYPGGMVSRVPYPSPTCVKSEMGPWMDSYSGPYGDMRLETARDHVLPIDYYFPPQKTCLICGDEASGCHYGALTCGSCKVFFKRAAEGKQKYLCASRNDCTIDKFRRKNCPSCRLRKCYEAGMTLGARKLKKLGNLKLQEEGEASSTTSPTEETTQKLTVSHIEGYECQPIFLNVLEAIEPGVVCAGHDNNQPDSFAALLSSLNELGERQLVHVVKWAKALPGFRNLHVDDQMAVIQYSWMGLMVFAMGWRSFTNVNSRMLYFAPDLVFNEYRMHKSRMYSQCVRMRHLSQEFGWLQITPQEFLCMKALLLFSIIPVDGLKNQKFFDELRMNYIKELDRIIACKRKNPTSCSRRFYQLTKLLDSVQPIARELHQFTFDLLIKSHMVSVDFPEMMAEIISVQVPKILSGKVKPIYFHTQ
Conditions: previous reports

Structure (SMILES)	androgen receptor antagonistic properties
BrC1CCC(Br)C(Br)CCC1Br (centres unmarked) [TBCO]	androgen receptor antagonistic properites
CCCCC(CC)COC(=O)c1cc(Br)c(Br)c(Br)c1Br (centres unmarked) [TBB]	androgen receptor antagonistic properites
